Key:
Assay type in all cases: in vivo
[1] = test system: Spodoptera littoralis; assay: Spodoptera littoralis (Egyptian cotton leaf worm) cotton leaf disc test; conditions: foliar, 72 h, read-out: control (at least one of mortality, anti-feedant effect, and growth inhibition)
In short: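 Cotton leaf discs on agar were sprayed with aqueous dilutions of 10′000 ppm DMSO stocks, dried and infested with five L1 larvae. Mortality, anti-feedant effect and growth inhibition were scored against untreated samples 3 days after infestation. Control = any of these higher than untreated.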

[2] = test system: Diabrotica Balteata; assay: Diabrotica balteata (corn root worm) maize sprout test; conditions: 96 h, read-out: effect in at least one of the two categories (mortality or growth inhibition)
In short: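 Maize sprouts on agar were sprayed with aqueous test solutions made from 10′000 ppm DMSO stocks, dried, then infested with 6 to 10 L2 larvae per well. Mortality and growth inhibition versus untreated samples were assessed 4 days after infestation; application rate 200 ppm.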

[3] = test system: Myzus persicae; assay: Myzus persicae (green peach aphid) sunflower leaf disc test; conditions: foliar, 144 h
Description: Myzus persicae (Green Peach Aphid):
Sunflower leaf discs were placed on agar in a 24-well microtiter plate and sprayed with test solutions at an application rate of 200 ppm. After drying, the leaf discs were infested with an aphid population of mixed ages. After an incubation period of 6 days after treatment, samples were checked for mortality. The following compounds gave at least 80% mortality of Myzus persicae: […]

[4] = test system: Plutella xylostella; assay: Plutella xylostella (diamond back moth) artificial diet test; conditions: 120 h, read-out: effect in at least one of the two categories (mortality or growth inhibition)
In short: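 Artificial diet treated with aqueous compound solutions made from DMSO stocks, dried, then infested with L2 larvae (10 to 15 per well). Mortality and growth inhibition scored versus untreated controls 5 days after infestation. Application rate 200 ppm.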

[5] = test system: Thrips tabaci; assay: Thrips tabaci (onion thrips) sunflower leaf disc test; conditions: foliar, 144 h
Description: Thrips tabaci (Onion Thrips):
(§1) Sunflower leaf discs were placed on agar in 24-well microtiter plates and sprayed with aqueous test solutions prepared from 10′000 ppm DMSO stock solutions. After drying the leaf discs were infested with a thrips population of mixed ages. The samples were assessed for mortality 6 days after infestation.

[6] = test system: Tetranychus urticae; assay: Tetranychus urticae (two-spotted spider mite) bean leaf disc test; conditions: foliar, 192 h
Description: Tetranychus urticae (Two-Spotted Spider Mite):
as §1, with “Bean” for “Sunflower”, “discs” for “discs were placed”, “were” for “and”, “mite” for “thrips”, “on mixed population (mobile stages) 8” for “6”

C=C(C)COC1=NOC(NC(=O)c2ccc(C3=NO[C@@](c4cc(Cl)c(F)c(Cl)c4)(C(F)(F)F)C3)cc2C)C1 (stereo partly drawn) [Compound A080]
≥ 80%: percent control (mortality, anti-feedant effect or growth inhibition) at 200 ppm [1] | percent effect (mortality or growth inhibition) at 200 ppm [2] | mortality at 200 ppm [3] | percent effect (mortality or growth inhibition) at 200 ppm [4] | mortality at 200 ppm [5] | mortality at 200 ppm [6]

Cc1cc(C2=NO[C@@](c3cc(Cl)c(F)c(Cl)c3)(C(F)(F)F)C2)ccc1C(=O)NC1CC(OCC[Si](C)(C)C)=NO1 (stereo partly drawn) [Compound A109]
≥ 80%: percent control (mortality, anti-feedant effect or growth inhibition) at 200 ppm [1] | percent effect (mortality or growth inhibition) at 200 ppm [2] | mortality at 200 ppm [3] | percent effect (mortality or growth inhibition) at 200 ppm [4] | mortality at 200 ppm [5] | mortality at 200 ppm [6]

Cc1cc(C2=NO[C@@](c3cc(Cl)cc(Cl)c3)(C(F)(F)F)C2)ccc1C(=O)NC1CC(OCC(F)F)=NO1 (stereo partly drawn) [Compound A128]
≥ 80%: percent control (mortality, anti-feedant effect or growth inhibition) at 200 ppm [1] | percent effect (mortality or growth inhibition) at 200 ppm [2] | mortality at 200 ppm [3] | percent effect (mortality or growth inhibition) at 200 ppm [4] | mortality at 200 ppm [5] | mortality at 200 ppm [6]

CSC1=NOC(NC(=O)c2ccc(C3=NO[C@@](c4cc(Cl)cc(C(F)(F)F)c4)(C(F)(F)F)C3)cc2C)C1 (stereo partly drawn) [Compound A050]
≥ 80%: percent control (mortality, anti-feedant effect or growth inhibition) at 200 ppm [1] | percent effect (mortality or growth inhibition) at 200 ppm [2] | mortality at 200 ppm [3] | percent effect (mortality or growth inhibition) at 200 ppm [4] | mortality at 200 ppm [5] | mortality at 200 ppm [6]

CC1=NOC(N(C=O)C(=O)c2ccc(C3=NO[C@@](c4cc(Cl)c(Cl)c(Cl)c4)(C(F)(F)F)C3)cc2Br)C1 (stereo partly drawn) [Compound A035, 2-bromo-N-formyl-N-(3-methyl-4,5-dihydroisoxazol-5-yl)-4-[(5S)-5-(3,4,5-trichlorophenyl)-5-(trifluoromethyl)-4H-isoxazol-3-yl]benzamide]
≥ 80%: percent control (mortality, anti-feedant effect or growth inhibition) at 200 ppm [1] | percent effect (mortality or growth inhibition) at 200 ppm [2] | mortality at 200 ppm [3] | percent effect (mortality or growth inhibition) at 200 ppm [4] | mortality at 200 ppm [5] | mortality at 200 ppm [6]

CO/N=C/C1=NOC(NC(=O)c2ccc(C3=NO[C@@](c4cc(Cl)c(F)c(Cl)c4)(C(F)(F)F)C3)cc2C)C1 (stereo partly drawn) [Compound A119, 4-[(5S)-5-(3,5-dichloro-4-fluoro-phenyl)-5-(trifluoromethyl)-4H-isoxazol-3-yl]-N-[3-[(E)-methoxyiminomethyl]-4,5-dihydroisoxazol-5-yl]-2-methyl-benzamide]
≥ 80%: percent control (mortality, anti-feedant effect or growth inhibition) at 200 ppm [1] | percent effect (mortality or growth inhibition) at 200 ppm [2] | mortality at 200 ppm [3] | percent effect (mortality or growth inhibition) at 200 ppm [4] | mortality at 200 ppm [5] | mortality at 200 ppm [6]

C#CCCCOC1=NOC(NC(=O)c2ccc(C3=NO[C@@](c4cc(Cl)c(Cl)c(Cl)c4)(C(F)(F)F)C3)cc2C)C1 (stereo partly drawn) [Compound A113, 2-methyl-N-(3-pent-4-ynoxy-4,5-dihydroisoxazol-5-yl)-4-[(5S)-5-(3,4,5-trichlorophenyl)-5-(trifluoromethyl)-4H-isoxazol-3-yl]benzamide]
≥ 80%: percent control (mortality, anti-feedant effect or growth inhibition) at 200 ppm [1] | percent effect (mortality or growth inhibition) at 200 ppm [2] | mortality at 200 ppm [3] | percent effect (mortality or growth inhibition) at 200 ppm [4] | mortality at 200 ppm [5] | mortality at 200 ppm [6]

COC1=NOC(N(C=O)C(=O)c2ccc(C3=NO[C@@](c4cc(Cl)cc(Cl)c4)(C(F)(F)F)C3)cc2C)C1 (stereo partly drawn) [Compound A134]
≥ 80%: percent control (mortality, anti-feedant effect or growth inhibition) at 200 ppm [1] | percent effect (mortality or growth inhibition) at 200 ppm [2] | mortality at 200 ppm [3] | percent effect (mortality or growth inhibition) at 200 ppm [4] | mortality at 200 ppm [5] | mortality at 200 ppm [6]

CCCCOC1=NOC(NC(=O)c2ccc(C3=NO[C@@](c4cc(Cl)c(F)c(Cl)c4)(C(F)(F)F)C3)cc2C)C1 (stereo partly drawn) [Compound A104]
≥ 80%: percent control (mortality, anti-feedant effect or growth inhibition) at 200 ppm [1] | percent effect (mortality or growth inhibition) at 200 ppm [2] | mortality at 200 ppm [3] | percent effect (mortality or growth inhibition) at 200 ppm [4] | mortality at 200 ppm [5] | mortality at 200 ppm [6]
